Drawing on the SangsterLogP compilation, this text covers logP for 35 compounds.

The nature of the data set: method code SF-AS, from DOI: 10.1002/jps.2600820804.
Consider `COC(=O)c1ccc(Br)cc1`, for which the logP turned out to be 2.95.

`Cc1cccc(Cl)c1O` showed a logP of 2.8.

`Oc1c(Br)cccc1Br` gave a logP of 3.36.

Regarding `COC(=O)c1ccc(F)cc1`, the logP came out at 2.28.

`O=C(O)c1c(F)cccc1F` had a logP of 1.59.

The compound `COC(=O)c1ccccc1[N+](=O)[O-]` came in with a logP of 1.66.

`CSc1ccccc1C(N)=O` displayed a logP of 0.71.

In turn, `Oc1c(F)cccc1F` gave a lipophilicity (logP) of 1.96.

In turn, `Cc1cccc(Cl)c1C(=O)O` returned a logP of 2.31.

For `NC(=O)c1ccccc1[N+](=O)[O-]`, the logP was -0.12.

For the compound `COC(=O)c1c(F)cccc1F`, the log partition coefficient (logP) amounted to 1.96.

Compound `COC(=O)c1c(C)cccc1C` yielded a logP of 2.55.

Turning to `COC(=O)c1ccccc1OC`, the logP was 2.04.

Regarding `CC(=O)Oc1c(C)cccc1C`, the log partition coefficient (logP) came out at 2.32.

Take `COC(=O)c1ccccc1I`: the log partition coefficient (logP) stood at 2.74.

Compound `CCc1cccc(CC)c1O` yielded a logP of 3.03.

In the case of `COC(=O)c1ccccc1F`, the lipophilicity (logP) was determined as 1.82.

`O=C(O)c1c(F)cccc1Cl` had a logP of 2.11.

`CCc1cccc(OC(C)=O)c1` gave a log partition coefficient (logP) of 2.45.

In turn, `COC(=O)c1cccc(Cl)c1` had a log partition coefficient (logP) of 2.85.

Compound `COc1cccc(OC(C)=O)c1` came in with a log partition coefficient (logP) of 1.61.

Compound `COC(=O)c1ccc([N+](=O)[O-])cc1` came in with a lipophilicity (logP) of 1.94.

With `COC(=O)c1c(F)cccc1Cl`, the logP came to 2.42.

Compound `COC(=O)c1c(Cl)cccc1Cl` registered a lipophilicity (logP) of 2.79.

Compound `O=C(O)c1c(Cl)cccc1[N+](=O)[O-]` showed a lipophilicity (logP) of 1.56.

With `COC(=O)c1c(Cl)cccc1[N+](=O)[O-]`, the logP amounted to 2.21.

Take `Cc1cccc(C)c1C(=O)O`: the logP turned out to be 2.21.

For `CCOc1cccc(OC(C)=O)c1`, the lipophilicity (logP) was 2.08.

Take `CCc1cccc(CC)c1OC(C)=O`: the log partition coefficient (logP) is 3.4.

Consider `COC(=O)c1ccc(C)cc1`, for which the logP was determined as 2.7.

For `COC(=O)c1cccc(C)c1`, the logP was 2.77. The logP values of the last two compounds are within 0.2 log units of each other.

`N#Cc1ccccc1C(N)=O` showed a lipophilicity (logP) of 0.

Compound `O=C(O)c1c(Br)cccc1Br` came in with a log partition coefficient (logP) of 3.58.

`CC(=O)Oc1c(Cl)cccc1Cl` registered a log partition coefficient (logP) of 2.94.

For `COC(=O)c1cccc([N+](=O)[O-])c1`, the logP is 1.89.

Broadly, the logP is the decadic logarithm of the partition coefficient of the neutral form, usually between octanol and water. High values mean a more lipophilic compound, low ones a more hydrophilic compound.
